Laboratory results reported in US20220378954A1, “METHODS FOR RADIOLABELLING GRPR ANTAGONISTS AND THEIR KITS” (NOVARTIS AG, priority 2019, published 2022).
Values joined by “and” are separate entries in the source; they are usually repeats but may differ in a detail not shown here. Equal entries are not always repeated.

Experiment: Peptide adhesion tests (non-specific binding of NeoB to glass and plastic surfaces)
Format: physicochemical
Conditions: final formulation: NeoB 50 μg, Mannitol 20 mg, Kolliphor HS15 500 μg, Gentisic acid 200 μg; three independent radiolabelling tests; adhesion to the glass

SMILES: CC(C)CC(CC(C)C)NC(=O)[C@H](Cc1cnc[nH]1)NC(=O)CNC(=O)[C@@H](NC(=O)[C@H](C)NC(=O)[C@H](Cc1c[nH]c2ccccc12)NC(=O)[C@H](CCC(N)=O)NC(=O)[C@@H](Cc1ccccc1)NC(=O)COCC(=O)Nc1ccc(CNC(=O)CN2CCN(CC(=O)O)CCN(CC(=O)O)CCN(CC(=O)O)CC2)cc1)C(C)C [NeoB]
- Peptide Adhesion (%): 4.8% and 5.0% and 5.8%
